Measurements published in patent US20090074761A1, “Therapeutic beta-glucan combinations” (priority 2007, published 2009).

Legend:
[1] = tested on: SKOV-3 tumors; assay: SKOV-3 xenograft in ICR SCID mice, i.v. therapy for 4 weeks (FIG. 3); assay type: in vivo, mouse; conditions: 1.2 mg β-glucan twice weekly, 0.2 mg bevacizumab every third day, i.v. 4 weeks; start 300 mm^3
Description: After SKOV-3 cell s.c. implantation, tumors were allowed to grow for over 17 days until they were 300 mm^3. […] Mice were sacrificed when the tumors reached 15 mm in diameter.

[2] = tested on: SKOV-3 tumors; assay: SKOV-3 xenograft model in ICR SCID mice (FIG. 4A, 4B); assay type: in vivo, mouse
Description: (§1) Additional evidence was gathered to show efficacy of in vivo therapy. ICR SCID mice implanted with SKOV-3 cells were compared to ICR SCID mice implanted with Colo38 cells as a control. […] Most of these tumors still retained their sizes before therapy. More importantly, 86% of these mice achieved long-term survival compared with 43% of tumor-bearing mice treated with anti-VEGF mAb only (FIG. 4B).

[3] = tested on: SKOV-3 tumors; assay: immunohistochemistry of tumor sections: iC3b deposition and neutrophil infiltration (FIG. 5); assay type: in vivo, mouse; conditions: for neutrophil infiltration in tumors: anti-Gr-1-PE staining of tumor sections; for iC3b deposition in tumors: anti-iC3b-FITC staining of tumor sections
Description: Interaction between the complement activation product iC3b and the I-domain of CR3 provides the first signal for CR3 priming. Engagement of β-glucan with the lectin-like domain of CR3 is additionally required for the full activation of CR3. The dual ligation of CR3 leads to neutrophil CR3-dependent cellular cytotoxicity (Li et al., J Immunol 177:1661-1669). Neutrophil trafficking within tumors is also critical for successful combined β-glucan with anti-tumor mAb therapy (Allendorf et al., J Immunol 174:7050-7056). Therefore, immunohistochemistry studies were carried out to examine complement activation and neutrophil infiltration within tumors after treatment with different regimens.
First, the tumor sections from four groups were stained with an anti-iC3b-FITC and anti-VEGF-PE mAbs. […] Second, the tumor sections were stained with anti-Gr-1-PE mAb to detect neutrophil infiltration.

[4] = tested on: MDA-MB-483, HBL-100, Colo38 cells; assay: complement activation (iC3b deposition), flow cytometry, cell lines negative for membrane-bound VEGF; assay type: cell-based, human; conditions: tumor cell lines negative for membrane-bound VEGF, mouse serum as complement source
Procedure: Next, the ability of anti-VEGF mAb to bind surface-bound VEGF and activate complement, which leads to iC3b deposition, was examined. SKOV-3 cells were mixed with anti-VEGF mAb in the presence of a 1:4 dilution of mouse serum (complement source). For every one million tumor cells, a 100 μL volume of diluted mouse serum containing 10 μg/mL working dilution of anti-VEGF mAb was used. Tumor cells were mixed and incubated at 37° C. for 30 min. The cells were washed in ice cold flow cytometry staining buffer and the cell pellet was resuspended in […] diluted detecting antibody. The cells were incubated on ice for 30 min. and washed twice. Propidium iodide was used to exclude dead cells. The results of cell lines MDA-MB-483, HBL-100, SKOV-3 and Colo38 are shown in histograms 26, 28, 30 and 32 of FIG. 1C, respectively. Cells incubated with anti-VEGF mAb in the presence of complement and stained with anti-mouse iC3b-FITC mAb are represented by bold lines. Controls included cells incubated with mouse complement (dotted line) or without mouse complement (filled gray) and then stained with anti-mouse iC3b-FITC mAb.

[5] = tested on: SKOV-3 tumors; assay: tumor blood vessel development, anti-CD31 staining of tumor sections (FIG. 6); assay type: in vivo, mouse; conditions: anti-CD31-biotin staining, compared to PBS or β-glucan alone
Description: To observe tumor blood vessel development after anti-VEGF mAb therapy, the tumor sections were stained with anti-CD31-biotin mAb.

[6] = tested on: SKOV-3 cells; assay type: cell-based, human
Procedure: As described above, β-glucan functions with anti-tumor antibodies to activate complement receptor 3 (CR3) and recruit neutrophils that mediate CR3 (iC3b-receptor)-dependent cytotoxicity of tumors coated with iC3b. […] SKOV-3 cells were incubated with anti-VEGF mAb or anti-Her-2/neu mAb in the presence of human complement. Cells were then washed and co-cultured with human neutrophils (E:T ratio=20:1) in the presence of soluble β-glucan. Cytotoxicity was calculated as in Li et al., J Immunol 177:1661-1669.

[7] = tested on: Colo38 tumors; assay: Colo38 xenograft model in ICR SCID mice (FIG. 4C); assay type: in vivo, mouse; conditions: Colo38 xenograft (membrane-bound VEGF negative)
Description: as §1

poly-(1-6)-β-D-glucopyranosyl-(1-3)-β-D-glucopyranose [β-glucan]
tumor size reached [1]: 1500±500 mm^3
tumor burden [2]: did not show any significant tumor regression
neutrophil infiltration in tumors [3]: paucity of iC3b deposition and neutrophil infiltration
iC3b deposition in tumors [3]: no iC3b deposition

bevacizumab
complement activation (iC3b deposition) [4]: negative for complement activation
tumor microvessel density [5]: decreased tumor microvessel density
tumor size reached [1]: 800±250 mm^3
mice achieving long-term survival [2]: 43%
tumor burden [2]: significantly reduced tumor burden
neutrophil infiltration in tumors [3]: significant neutrophil infiltration
iC3b deposition in tumors [3]: massive iC3b deposition
cytotoxicity [6]: 0.2%
tumor burden [7]: significantly reduced tumor burden
